The results in this text go back to US20100004285A1, “POLYMORPH OF 4-[2-[4-[1-(2-ETHOXYETHYL)-1H-BENZIMIDAZOLE-2-YL]-1-PIPERIDINYL]ETHYL]-alpha alpha-DIMETHYL-BENZENEACETIC ACID” (FAES FARMA, S.A., priority 2002, published 2010).

“Also recorded” adds a separate entry of the source.

For series [1], the system named is histamine-induced lethality. Put plainly: preventing histamine-induced lethality in the guinea-pig. It counts as in vivo.
The nature of series [2]: stability of the crystalline polymorphic forms of bilastine. Type of series: physicochemical.
In series [3] the test system is cutaneous capillary permeability induced by histamine. Put plainly: antagonism against cutaneous capillary permeability induced by histamine in the rat. Type of series: in vivo.

For the compound `CCOCCn1c(C2CCN(CCc3ccc(C(C)(C)C(=O)O)cc3)CC2)nc2ccccc21` [crystalline form 1, 4-[2-[4-[1-(2-ethoxyethyl)-1H benzimidazole-2-yl]-1-piperidinyl]ethyl]-αα-dimethyl-benzeneacetic acid], in series [1], the “antihistaminic properties: histamine-induced lethality” value is given as “preventing histamine-induced lethality”. Besides, in series [2], the “stability of the crystalline form” value is given as “stable; also recorded: very stable”; the “transformation into the other polymorphs” value was “not transformed into any of the other polymorphs 2 and 3”. Also, the “stability of the polymorph at room temperature” value in series [2] (room temperature) is “very stable”. Besides, the “stability when stored at temperatures above room temperature” value in series [2] (stored at temperatures above room temperature) was “stable”. In addition, the “antihistaminic properties: cutaneous capillary permeability induced by histamine” value in series [3] is “antagonism against cutaneous capillary permeability induced by histamine”.
As for `CCOCCn1c(C2CCN(CCc3ccc(C(C)(C)C(=O)O)cc3)CC2)nc2ccccc21` [crystalline form 2, 4-[2-[4-[1-(2-ethoxyethyl)-1H benzimidazole-2-yl]-1-piperidinyl]ethyl]-αα-dimethyl-benzeneacetic acid], the “stability of the crystalline form” value in series [2] was “stable”.
Same read-out and setting: for `CCOCCn1c(C2CCN(CCc3ccc(C(C)(C)C(=O)O)cc3)CC2)nc2ccccc21` [crystalline form 3, 4-[2-[4-[1-(2-ethoxyethyl)-1H benzimidazole-2-yl]-1-piperidinyl]ethyl]-αα-dimethyl-benzeneacetic acid] the value was “not very stable; also recorded: the most unstable”.
